Source: US20170334899A1, “AMINO-SUBSTITUTED ISOTHIAZOLES” (Bayer Pharma Aktiengesellschaft, priority 2014, published 2017)

Target: T1, human kinase Mps-1 (Homo sapiens, UniProt P33981)
T1 construct: N-terminally GST-tagged human full length recombinant Mps-1 kinase; GST (N); purchased Invitrogen, Karslruhe, Germany PV4071
T1 sequence (P33981 1-857): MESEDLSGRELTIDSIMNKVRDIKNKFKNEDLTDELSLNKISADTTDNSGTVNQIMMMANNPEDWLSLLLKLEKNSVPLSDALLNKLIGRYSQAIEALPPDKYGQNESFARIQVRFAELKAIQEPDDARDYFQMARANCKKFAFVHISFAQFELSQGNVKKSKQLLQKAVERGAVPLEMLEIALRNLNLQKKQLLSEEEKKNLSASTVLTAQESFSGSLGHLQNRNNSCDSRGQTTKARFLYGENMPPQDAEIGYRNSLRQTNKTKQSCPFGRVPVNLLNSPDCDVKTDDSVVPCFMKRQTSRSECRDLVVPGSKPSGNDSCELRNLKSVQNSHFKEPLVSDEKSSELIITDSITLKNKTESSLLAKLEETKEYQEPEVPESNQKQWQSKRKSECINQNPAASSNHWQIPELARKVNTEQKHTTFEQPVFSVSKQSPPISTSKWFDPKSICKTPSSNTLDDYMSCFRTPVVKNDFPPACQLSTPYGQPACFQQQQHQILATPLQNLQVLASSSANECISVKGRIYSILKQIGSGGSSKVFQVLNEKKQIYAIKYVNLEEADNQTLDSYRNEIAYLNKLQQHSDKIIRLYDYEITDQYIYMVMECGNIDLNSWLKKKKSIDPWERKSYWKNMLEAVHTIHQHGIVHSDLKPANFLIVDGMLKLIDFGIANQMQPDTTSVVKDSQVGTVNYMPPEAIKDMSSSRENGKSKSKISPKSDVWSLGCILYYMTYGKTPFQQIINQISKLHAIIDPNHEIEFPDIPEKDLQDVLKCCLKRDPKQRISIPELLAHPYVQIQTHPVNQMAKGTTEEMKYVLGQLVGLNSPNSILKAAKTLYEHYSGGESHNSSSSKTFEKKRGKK
Test: Mps-1 kinase assay (TR-FRET)
Format: biochemical
Settings: Mps-1 TR-FRET kinase assay; avg; read-out: Mps1 avg (IC50 [mol/l])
How it was run: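 Inhibition normalised between uninhibited reaction (0%) and enzyme-free wells (100%), using the blank-corrected TR-FRET 665/620 nm ratio after EDTA stop. Reaction: ~0.5 nM GST-Mps-1 full length, 10 μM ATP, 1 μM biotin-peptide, 60 min at 22 °C, after 15 min compound pre-binding, pH 7.7.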

IC50 [µM]	Structure (SMILES)
≥ 20	Cc1nsc(Nc2cnc(C(F)(F)F)cn2)c1C(=O)Nc1ccc(OCC2CCN(C(=O)OC(C)(C)C)C2)nc1 (stereo not shown) [Example 109, tert-Butyl 3-{[(5-{[(3-methyl-5-{[5-(trifluoromethyl)pyrazin-2-yl]amino}-1,2-thiazol-4-yl)carbonyl]amino}pyridin-2-yl)oxy]methyl}pyrrolidine-1-carboxylate]
6.5	Cc1nsc(Nc2cnc3ccccc3n2)c1C(=O)Nc1cccc(C(=O)N[C@H](C(=O)O)[C@@H](C)O)c1 [Example 105, N-[3-({[3-methyl-5-(quinoxalin-2-ylamino)-1,2-thiazol-4-yl]carbonyl}amino)-benzoyl]threonine]
> 20	Cc1nsc(Nc2cnc(C(F)(F)F)cn2)c1C(=O)Nc1ccc(O[C@H]2CCN(CCC(F)(F)F)C[C@H]2F)nc1 [Example 146, N-(6-{[(3R,4S)-3-fluoro-1-(3,3,3-trifluoropropyl)piperidin-4-yl]oxy}pyridin-3-yl)-3-methyl-5-{[5-(trifluoromethyl)pyrazin-2-yl]amino}-1,2-thiazole-4-carboxamide]
12	Cc1nsc(Nc2cnc3ccccc3n2)c1C(=O)Nc1cccc(C(=O)N2CCCC2)c1 [Example 113, 3-Methyl-N-[3-(pyrrolidin-1-ylcarbonyl)phenyl]-5-(quinoxalin-2-ylamino)-1,2-thiazole-4-carboxamide]
> 20	Cc1nsc(Nc2cnc(C(F)(F)F)cn2)c1C(=O)Nc1ccc(O[C@H]2CCN(CC(F)(F)F)C[C@H]2F)nc1 [Example 145, N-(6-{[(3R,4S)-3-fluoro-1-(2,2,2-trifluoroethyl)piperidin-4-yl]oxy}pyridin-3-yl)-3-methyl-5-{[5-(trifluoromethyl)pyrazin-2-yl]amino}-1,2-thiazole-4-carboxamide]
> 20	Cc1nsc(Nc2cnc(C(F)(F)F)cn2)c1C(=O)Nc1ccc(C(=O)N2CCN(CC(F)F)CC2)cc1 [Example 154, N-(4-{[4-(2,2-difluoroethyl)piperazin-1-yl]carbonyl}phenyl)-3-methyl-5-{[5-(trifluoromethyl)pyrazin-2-yl]amino}-1,2-thiazole-4-carboxamide]
18	Cc1nsc(Nc2cnc3ccccc3n2)c1C(=O)Nc1cccc(C(=O)N2CCNCC2)c1 [Example 101, 3-Methyl-N-[3-(piperazin-1-ylcarbonyl)phenyl]-5-(quinoxalin-2-ylamino)-1,2-thiazole-4-carboxamide]
> 20	Cc1nsc(Nc2cnc(C(F)(F)F)cn2)c1C(=O)Nc1ccc(O[C@@H]2CCN(CC(F)(F)F)C[C@@H]2F)nc1 [Example 138, N-(6-{[(3S,4R)-3-fluoro-1-(2,2,2-trifluoroethyl)piperidin-4-yl]oxy}pyridin-3-yl)-3-methyl-5-{[5-(trifluoromethyl)pyrazin-2-yl]amino}-1,2-thiazole-4-carboxamide]
> 20	Cc1nsc(Nc2cnc3cc(F)ccc3n2)c1C(=O)Nc1ccc(S(N)(=O)=O)cc1 [Example 149, 5-[(6-fluoroquinoxalin-2-yl)amino]-3-methyl-N-(4-sulfamoylphenyl)-1,2-thiazole-4-carboxamide]
≥ 20	Cc1nsc(Nc2cnc(C(F)(F)F)cn2)c1C(=O)Nc1ccc(OCC2CCN(CCC(F)(F)F)C2)nc1 (stereo not shown) [Example 124, 3-methyl-5-{[5-(trifluoromethyl)pyrazin-2-yl]amino}-N-(6-{[1-(3,3,3-trifluoropropyl)pyrrolidin-3-yl]methoxy}pyridin-3-yl)-1,2-thiazole-4-carboxamide]
> 20	Cc1nsc(Nc2cnc(C(F)(F)F)cn2)c1C(=O)Nc1ccc(OC2CCN(CC(F)(F)F)CC2)c(F)c1 [Example 163, N-(3-fluoro-4-{[1-(2,2,2-trifluoroethyl)piperidin-4-yl]oxy}phenyl)-3-methyl-5-{[5-(trifluoromethyl)pyrazin-2-yl]amino}-1,2-thiazole-4-carboxamide]
18	Cc1nsc(Nc2cncc(C(F)(F)F)n2)c1C(=O)Nc1ccc(C(=O)NCCN2CCCC(F)C2)cc1 (stereo not shown) [Example 155, N-(4-{[2-(3-fluoropiperidin-1-yl)ethyl]carbamoyl}phenyl)-3-methyl-5-{[6-(trifluoromethyl)pyrazin-2-yl]amino}-1,2-thiazole-4-carboxamide]
> 20	CCCN1CC[C@@H](Oc2ccc(NC(=O)c3c(C)nsc3Nc3cnc(C(F)(F)F)cn3)cn2)[C@@H](F)C1 [Example 140, N-(6-{[(3S,4R)-3-fluoro-1-propylpiperidin-4-yl]oxy}pyridin-3-yl)-3-methyl-5-{[5-(trifluoromethyl)pyrazin-2-yl]amino}-1,2-thiazole-4-carboxamide]
